According to patent publication US9573913B2, “Cathepsin cysteine protease inhibitors” (Merck Sharp & Dohme Corp., priority 2013, dated 2017):

Assays:
[1] = target: human cathepsin K (UniProt P43236); test: Cathepsin K Assay (hrbCat K); assay type: biochemical; conditions: Z-Leu-Arg-AMC substrate, pH 5.5, 15 min preincubation; read-out: hrbCat K (IP (nM))
Outline: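 Human cathepsin K (0.4 nM) was preincubated 15 min at room temperature with compound in 50 mM MES pH 5.5, 2.5 mM EDTA, 2.5 mM DTT and 10% DMSO. Inhibition was fitted to a dose-response model.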

[2] = target: T1, human cathepsin F (Homo sapiens, UniProt Q9UBX1); test: Cathepsin F assay (hCat F); assay type: biochemical; conditions: Z-Phe-Arg-AMC substrate, pH 5.5, 15 min preincubation; read-out: hCat F (IP (nM))
T1 sequence (Q9UBX1 271-484): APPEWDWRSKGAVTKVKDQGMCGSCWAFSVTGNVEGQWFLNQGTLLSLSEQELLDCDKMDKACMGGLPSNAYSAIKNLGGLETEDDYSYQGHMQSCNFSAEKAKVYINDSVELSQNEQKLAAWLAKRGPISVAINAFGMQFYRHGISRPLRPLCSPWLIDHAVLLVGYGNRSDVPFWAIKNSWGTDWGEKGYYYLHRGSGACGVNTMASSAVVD
Outline: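 AMC release from Z-Phe-Arg-AMC, added at 8 μM, was monitored fluorometrically (360/460 nm) for 20 min after 10 nM enzyme and compound had been preincubated 15 min at room temperature. Buffer: MES 50 mM pH 5.5, EDTA and DTT 2.5 mM each, 10% DMSO. Compound DMSO dilutions spanned 500–0.025 μM (3-fold). Dose-response fitting gave % inhibition.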

Structure (SMILES) | IC50 [1] [nM] | IC50 [2] [nM]
Cc1nc([C@@H]2CCCC[C@H]2C(=O)NCC#N)c(-c2ccc(N3CCS(=O)(=O)CC3)cc2)o1 [Example 164, (1R,2R)-N-(cyanomethyl)-2-(5-(4-(1,1-dioxidothiomorpho-lino)phenyl)-2-methyloxazol-4-yl)cyclohexane-carboxamide] | 13.8 | ≥ 10000
N#CC1(NC(=O)[C@@H]2CC(F)(F)CC[C@H]2c2nc(-c3ccc(F)cc3)oc2-c2ccc(N3CCS(=O)(=O)CC3)cc2)CC1 [Example 165, (1R,2R)-N-(1-cyanocyclopropyl)-2-(5-(4-(1,1-dioxidothiomorpho-lino)phenyl)-2-(4-fluorophenyl)oxazol-4-yl)-5,5-difluorocyclohexane-carboxamide] | 0.6 | 61
CC(C)(C)c1nc([C@@H]2CCC(F)(F)C[C@H]2C(=O)NC2(C#N)CC2)c(-c2ccc(N3CCS(=O)(=O)CC3)cc2)o1 [Example 166, (1R,2R)-2-(2-(tert-butyl)-5-(4-(1,1-dioxidothiomorpho-lino)phenyl)oxazol-4-yl)-N-(1-cyanocyclopropyl)-5,5-difluorocyclohexane-carboxamide] | 0.7 | 356
CC(C)(C)c1nc([C@@H]2CCCC[C@H]2C(=O)NC2(C#N)CC2)c(-c2ccc(N3CCS(=O)(=O)CC3)cc2)o1 [Example 167, (1R,2R)-2-(2-(tert-butyl)-5-(4-(1,1-dioxidothiomorpho-lino)phenyl)oxazol-4-yl)-N-(1-cyanocyclopropyl) cyclohexanecarbox-amide] | 2.4 | 5120
CC(C)(C)c1nc([C@@H]2CC[C@H](F)C[C@H]2C(=O)NC2(C#N)CC2)c(-c2ccc(N3CCS(=O)(=O)CC3)cc2)o1 [Example 168, (1R,2R,5S)-2-(2-(tert-butyl)-5-(4-(1,1-dioxidothiomorpho-lino)phenyl)oxazol-4-yl)-N-(1-cyanocyclopropyl)-5-fluorocyclohexane-carboxamide] | 3.3 | ≥ 10000
C[C@@H](C#N)NC(=O)[C@@H]1C[C@@H](F)CC[C@H]1c1nc(C(C)(C)C)oc1-c1ccc(N2CCS(=O)(=O)CC2)cc1 [Example 169, (1R,2R,5S)-2-(2-(tert-butyl)-5-(4-(1,1-dioxidothiomorpho-lino)phenyl)oxazol-4-yl)-N-((S)-1-cyanoethyl)-5-fluorocyclohexane-carboxamide] | 2.7 | 5660
CC(C)[C@@H](C#N)NC(=O)[C@@H]1C[C@@H](F)CC[C@H]1c1nc(C(C)(C)C)oc1-c1ccc(N2CCS(=O)(=O)CC2)cc1 [Example 170, (1R,2R,5S)-2-(2-(tert-butyl)-5-(4-(1,1-dioxidothiomorpho-lino)phenyl)oxazol-4-yl)-N-((S)-1-cyano-2-methylpropyl)-5-fluorocyclohexane-carboxamide] | 12 | ≥ 10000
C[C@@H](C#N)NC(=O)[C@@H]1C[C@@H](F)CC[C@H]1c1nc(C(C)(C)C)oc1-c1ccc(N2CCS(=N)(=O)CC2)cc1 [Example 171, (1R,2R,5S)-2-(2-(tert-butyl)-5-(4-(1-imino-1-oxidothiomorpholino)phenyl)oxazol-4-yl)-N-((S)-1-cyanoethyl)-5-fluorocyclohexane-carboxamide] | 4.8 | 7420
CC(C)[C@@H](C#N)NC(=O)[C@@H]1C[C@@H](F)CC[C@H]1c1nc(C(C)(C)C)oc1-c1ccc(N2CCS(=N)(=O)CC2)cc1 [Example 172, (1R,2R,5S)-2-(2-(tert-butyl)-5-(4-(1-imino-1-oxidothiomorpholino)phenyl)oxazol-4-yl)-N-((S)-1-cyano-2-methylpropyl)-5-fluorocyclohexane-carboxamide] | 34.4 | ≥ 10000
CN=S1(=O)CCN(c2ccc(-c3oc(C(C)(C)C)nc3[C@@H]3CC[C@H](F)C[C@H]3C(=O)N[C@@H](C)C#N)cc2)CC1 [Example 173, (1R,2R,5S)-2-(2-(tert-butyl)-5-(4-(1-(methylimino)-1-oxidothiomorpholino)phenyl)oxazol-4-yl)-N-((S)-1-cyanoethyl)-5-fluorocyclohexane-carboxamide] | 4.7 | 6900
CN=S1(=O)CCN(c2ccc(-c3oc(C(C)(C)C)nc3[C@@H]3CC[C@H](F)C[C@H]3C(=O)N[C@H](C#N)C(C)C)cc2)CC1 [Example 174, (1R,2R,5S)-2-(2-(tert-butyl)-5-(4-(1-(methylimino)-1-oxidothiomorpholino)phenyl)oxazol-4-yl)-N-((S)-1-cyano-2-methylpropyl)-5-fluorocyclohexane-carboxamide] | 31.3 | ≥ 10000
N#CC1(NC(=O)[C@@H]2C[C@@H](F)CC[C@H]2c2nc(-c3ccc(F)cc3)sc2-c2ccc(N3CCS(=N)(=O)CC3)cc2)CC1 [Example 176, (1R,2R,5S)-N-(1-cyanocyclopropyl)-5-fluoro-2-(2-(4-fluorophenyl)-5-(4-(1-imino-1-oxidothiomorpholino)phenyl)thiazol-4-yl)cyclohexane-carboxamide] | 3.2 | 3330
CN=S1(=O)CCN(c2ccc(-c3sc(-c4ccc(F)cc4)nc3[C@@H]3CC[C@H](F)C[C@H]3C(=O)NC3(C#N)CC3)cc2)CC1 [Example 177, (1R,2R,5S)-N-(1-cyanocyclopropyl)-5-fluoro-2-(2-(4-fluorophenyl)-5-(4-(1-(methylimino)-1-oxidothiomorpholino)phenyl)thiazol-4-yl)cyclohexane-carboxamide] | 3.5 | 3330

Continued, values first:

IC50 [1] [nM] | IC50 [2] [nM] | Structure (SMILES)
8.8 | ≥ 10000 | N#CC1(NC(=O)[C@@H]2CCCC[C@H]2c2nc(NCC(F)(F)F)sc2-c2ccc(N3CCS(=O)(=O)CC3)cc2)CC1 [Example 156, (1R,2R)-N-(1-cyanocyclopropyl)-2-(5-(4-(1,1-dioxidothiomorpho-lino)phenyl)-2-((2,2,2-trifluoroethyl)amino)thiazol-4-yl)cyclohexane-carboxamide]
19.4 | ≥ 10000 | CC(C)(C)Nc1nc([C@@H]2CCCC[C@H]2C(=O)NC2(C#N)CC2)c(-c2ccc(N3CCS(=O)(=O)CC3)cc2)s1 [Example 157, (1R,2R)-2-(2-(tert-butylamino)-5-(4-(1,1-dioxidothiomorpho-lino)phenyl)thiazol-4-yl)-N-(1-cyanocyclopropyl) cyclohexanecarbox-amide]
4.6 | ≥ 10000 | N#CC1(NC(=O)[C@@H]2CCCC[C@H]2c2nc(C3CCS(=O)(=O)CC3)sc2-c2ccc(N3CCS(=O)(=O)CC3)cc2)CC1 [Example 158, (1R,2R)-N-(1-cyanocyclopropyl)-2-(2-(1,1-dioxidotetrahydro-2H-thiopyran-4-yl)-5-(4-(1,1-dioxidothiomorpho-lino)phenyl)thiazol-4-yl)cyclohexane-carboxamide]
1.6 | 3330 | CN=S1(=O)CCN(c2ccc(-c3sc(-c4ccc(F)cc4)nc3[C@@H]3CCCC[C@H]3C(=O)NC3(C#N)CC3)cc2)CC1 [Example 160, (1R,2R)-N-(1-cyanocyclopropyl)-2-(2-(4-fluorophenyl)-5-(4-(1-(methylimino)-1-oxidothiomorpholino)phenyl)thiazol-4-yl)cyclohexane-carboxamide]
5.1 | 1000 | CC(C)(c1ccccc1)c1nc([C@@H]2CCCC[C@H]2C(=O)NC2(C#N)CC2)c(-c2ccc(N3CCS(=O)(=O)CC3)cc2)s1 [Example 161, (1R,2R)-N-(1-cyanocyclopropyl)-2-(5-(4-(1,1-dioxidothiomorpho-lino)phenyl)-2-(2-phenylpropan-2-yl)thiazol-4-yl)cyclohexane-carboxamide]
2.1 | 1000 | N#CC1(NC(=O)[C@@H]2CCCC[C@H]2c2nc(C3(c4ccccc4)CC3)sc2-c2ccc(N3CCS(=O)(=O)CC3)cc2)CC1 [Example 175, (1R,2R)-N-(1-cyanocyclopropyl)-2-(5-(4-(1,1-dioxidothiomorpho-lino)phenyl)-2-(1-phenylcyclopropyl)thiazol-4-yl)cyclohexane-carboxamide]
41.2 | 1000 | N#CC1(NC(=O)[C@@H]2CCCC[C@H]2c2nc(NC3CCCCC3)sc2-c2ccc(N3CCS(=O)(=O)CC3)cc2)CC1 [Example 178, (1R,2R)-N-(1-cyanocyclopropyl)-2-(2-(cyclohexylamino)-5-(4-(1,1-dioxidothiomorpho-lino)phenyl)thiazol-4-yl)cyclohexane-carboxamide]
34.6 | 3740 | N#CC1(NC(=O)[C@@H]2CCCC[C@H]2c2nc(Nc3ccccc3)sc2-c2ccc(N3CCS(=O)(=O)CC3)cc2)CC1 [Example 179, (1R,2R)-N-(1-cyanocyclopropyl)-2-(5-(4-(1,1-dioxidothiomorpho-lino)phenyl)-2-(phenylamino)thia-zol-4-yl)cyclohexane-carboxamide]
43.3 | 1000 | N#CC1(NC(=O)[C@@H]2CCCC[C@H]2c2nc(Nc3ccc(F)cc3)sc2-c2ccc(N3CCS(=O)(=O)CC3)cc2)CC1 [Example 180, (1R,2R)-N-(1-cyanocyclopropyl)-2-(5-(4-(1,1-dioxidothiomorpho-lino)phenyl)-2-((4-fluorophenyl)amino)thiazol-4-yl)cyclohexane-carboxamide]
